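Dose response: 5 concentrations. Exposure: 48 h. Format: 96-well plates. Endpoint: linear interpolation; highest concentration if not reached. At the GI50, growth is halved. TGI is the concentration that stops growth completely.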
Legend:
Assay in all cases: DTP human tumour cell line panel, 48 h
786-0 renal = system: 786-0 renal
A498 renal = system: A498 renal
A549 NSCLC = system: A549 NSCLC
ACHN renal = system: ACHN renal
BT-549 breast = system: BT-549 breast
CAKI-1 renal = system: CAKI-1 renal
CCRF-CEM leukemia = system: CCRF-CEM leukemia
COLO 205 colon = system: COLO 205 colon
DU-145 prostate = system: DU-145 prostate
EKVX NSCLC = system: EKVX NSCLC
HCC-2998 colon = system: HCC-2998 colon
HCT-116 colon = system: HCT-116 colon
HCT-15 colon = system: HCT-15 colon
HL-60(TB) leukemia = system: HL-60(TB) leukemia
HOP-62 NSCLC = system: HOP-62 NSCLC
HOP-92 NSCLC = system: HOP-92 NSCLC
HT29 colon = system: HT29 colon
IGROV1 ovarian = system: IGROV1 ovarian
K-562 leukemia = system: K-562 leukemia
KM12 colon = system: KM12 colon
LOX IMVI melanoma = system: LOX IMVI melanoma
M14 melanoma = system: M14 melanoma
MALME-3M melanoma = system: MALME-3M melanoma
MCF7 breast = system: MCF7 breast
MDA-MB-231 breast = system: MDA-MB-231 breast
MDA-MB-435 = system: MDA-MB-435
MDA-MB-468 breast = system: MDA-MB-468 breast
MOLT-4 leukemia = system: MOLT-4 leukemia
NCI-H23 lung = system: NCI-H23 lung
NCI-H522 lung = system: NCI-H522 lung
NCI/ADR-RES ovarian = system: NCI/ADR-RES ovarian
OVCAR-3 ovarian = system: OVCAR-3 ovarian
OVCAR-4 ovarian = system: OVCAR-4 ovarian
OVCAR-5 ovarian = system: OVCAR-5 ovarian
PC-3 prostate = system: PC-3 prostate
RPMI-8226 leukemia = system: RPMI-8226 leukemia
RXF 393 renal = system: RXF 393 renal
SF-268 CNS = system: SF-268 CNS
SF-295 CNS = system: SF-295 CNS
SF-539 CNS = system: SF-539 CNS
SK-MEL-28 melanoma = system: SK-MEL-28 melanoma
SK-MEL-5 melanoma = system: SK-MEL-5 melanoma
SK-OV-3 ovarian = system: SK-OV-3 ovarian
SN12C renal = system: SN12C renal
SNB-19 CNS = system: SNB-19 CNS
SNB-75 CNS = system: SNB-75 CNS
SR leukemia = system: SR leukemia
SW-620 colon = system: SW-620 colon
T-47D breast = system: T-47D breast
TK-10 renal = system: TK-10 renal
U251 CNS = system: U251 CNS
UACC-257 melanoma = system: UACC-257 melanoma
UACC-62 melanoma = system: UACC-62 melanoma
UO-31 renal = system: UO-31 renal

With `CC[C@]12C=CCN3CC[C@@]4(c5ccc(OC)cc5N(C)[C@H]4[C@@](O)(C(=O)OC)[C@@H]1OC(=O)CCC[P+](c1ccc(C)cc1)(c1ccc(C)cc1)c1ccc(C)cc1)[C@@H]32` the GI50 (786-0 renal) was 756 nM, the TGI (786-0 renal) was 2080 nM and the GI50 (A498 renal) was 1560 nM. The TGI (A498 renal) was 3230 nM, the GI50 (A549 NSCLC) was 369 nM and the TGI (A549 NSCLC) was 1470 nM. For the same compound, the GI50 (ACHN renal) was 1320 nM, the TGI (ACHN renal) was 2700 nM and the GI50 (BT-549 breast) was 227 nM. The TGI (BT-549 breast) was 727 nM, the GI50 (CAKI-1 renal) was 1330 nM and the TGI (CAKI-1 renal) was 3050 nM. The GI50 (CCRF-CEM leukemia) was 301 nM, the TGI (CCRF-CEM leukemia) was 1450 nM and the GI50 (COLO 205 colon) was 180 nM. It also gave a TGI (COLO 205 colon) of 364 nM, a GI50 (DU-145 prostate) of 427 nM and a TGI (DU-145 prostate) of 1580 nM. The GI50 (EKVX NSCLC) was 460 nM, the TGI (EKVX NSCLC) was 1780 nM and the GI50 (HCC-2998 colon) was 319 nM. The TGI (HCC-2998 colon) was 1200 nM, the GI50 (HCT-116 colon) was 271 nM and the TGI (HCT-116 colon) was 1110 nM. The GI50 (HCT-15 colon) was 1630 nM, the TGI (HCT-15 colon) was 3040 nM and the GI50 (HL-60(TB) leukemia) was 178 nM. It also gave a TGI (HL-60(TB) leukemia) of 593 nM, a GI50 (HOP-62 NSCLC) of 311 nM and a TGI (HOP-62 NSCLC) of 1170 nM. It also gave a GI50 (HOP-92 NSCLC) of 173 nM, a TGI (HOP-92 NSCLC) of 578 nM and a GI50 (HT29 colon) of 195 nM. The TGI (HT29 colon) was 446 nM, the GI50 (IGROV1 ovarian) was 336 nM and the TGI (IGROV1 ovarian) was 1180 nM. For the same compound, the GI50 (K-562 leukemia) was 140 nM, the TGI (K-562 leukemia) was 1150 nM and the GI50 (KM12 colon) was 309 nM. The TGI (KM12 colon) was 1110 nM, the GI50 (LOX IMVI melanoma) was 327 nM and the TGI (LOX IMVI melanoma) was 1140 nM. The GI50 (M14 melanoma) was 384 nM, the TGI (M14 melanoma) was 1370 nM and the GI50 (MALME-3M melanoma) was 189 nM. For the same compound, the TGI (MALME-3M melanoma) was 448 nM, the GI50 (MCF7 breast) was 229 nM and the TGI (MCF7 breast) was 968 nM. It also gave a GI50 (MDA-MB-231 breast) of 234 nM, a TGI (MDA-MB-231 breast) of 610 nM and a GI50 (MDA-MB-435) of 290 nM. It also gave a TGI (MDA-MB-435) of 1040 nM, a GI50 (MDA-MB-468 breast) of 133 nM and a TGI (MDA-MB-468 breast) of 354 nM. It also gave a GI50 (MOLT-4 leukemia) of 320 nM, a TGI (MOLT-4 leukemia) of 1460 nM and a GI50 (NCI-H23 lung) of 282 nM. The TGI (NCI-H23 lung) was 1020 nM, the GI50 (NCI-H522 lung) was 264 nM and the TGI (NCI-H522 lung) was 929 nM. For the same compound, the GI50 (NCI/ADR-RES ovarian) was 8870 nM, the TGI (NCI/ADR-RES ovarian) was 49600 nM and the GI50 (OVCAR-3 ovarian) was 337 nM. For the same compound, the TGI (OVCAR-3 ovarian) was 1270 nM, the GI50 (OVCAR-4 ovarian) was 352 nM and the TGI (OVCAR-4 ovarian) was 1580 nM. The GI50 (OVCAR-5 ovarian) was 267 nM, the TGI (OVCAR-5 ovarian) was 905 nM and the GI50 (PC-3 prostate) was 236 nM. The TGI (PC-3 prostate) was 1080 nM, the GI50 (RPMI-8226 leukemia) was 128 nM and the TGI (RPMI-8226 leukemia) was 1040 nM. For the same compound, the GI50 (RXF 393 renal) was 256 nM, the TGI (RXF 393 renal) was 911 nM and the GI50 (SF-268 CNS) was 335 nM. It also gave a TGI (SF-268 CNS) of 1420 nM, a GI50 (SF-295 CNS) of 371 nM and a TGI (SF-295 CNS) of 1310 nM. For the same compound, the GI50 (SF-539 CNS) was 313 nM, the TGI (SF-539 CNS) was 1100 nM and the GI50 (SK-MEL-28 melanoma) was 383 nM. For the same compound, the TGI (SK-MEL-28 melanoma) was 1460 nM, the GI50 (SK-MEL-5 melanoma) was 356 nM and the TGI (SK-MEL-5 melanoma) was 1040 nM. The GI50 (SK-OV-3 ovarian) was 262 nM, the TGI (SK-OV-3 ovarian) was 794 nM and the GI50 (SN12C renal) was 264 nM. The TGI (SN12C renal) was 949 nM, the GI50 (SNB-19 CNS) was 290 nM and the TGI (SNB-19 CNS) was 1140 nM. For the same compound, the GI50 (SNB-75 CNS) was 217 nM, the TGI (SNB-75 CNS) was 777 nM and the GI50 (SR leukemia) was 294 nM. The TGI (SR leukemia) was 1400 nM, the GI50 (SW-620 colon) was 399 nM and the TGI (SW-620 colon) was 1580 nM. The GI50 (T-47D breast) was 247 nM, the TGI (T-47D breast) was 907 nM and the GI50 (TK-10 renal) was 602 nM. The TGI (TK-10 renal) was 1920 nM, the GI50 (U251 CNS) was 258 nM and the TGI (U251 CNS) was 1400 nM. The GI50 (UACC-257 melanoma) was 310 nM, the TGI (UACC-257 melanoma) was 1120 nM and the GI50 (UACC-62 melanoma) was 247 nM. The TGI (UACC-62 melanoma) was 822 nM, the GI50 (UO-31 renal) was 1450 nM and the TGI (UO-31 renal) was 2820 nM.

From PubChem BioAssay (NCI)
